We go through one compound from patent publication US9907791B2, “Ron inhibitors for use in preventing and treating bone loss” (UNIVERSITY OF UTAH RESEARCH FOUNDATION, priority 2014, dated 2018).

The nature of assay [1]: In vivo bone labeling and histomorphometry. More on the design: species or system mice. The conditions noted are these: normal, uninjected animals. The protocol: To label bones, mice were intraperitoneally injected with 20 mg/kg of calcein (Sigma-Aldrich, St. Louis, Mo.) or 30 mg/kg of Alizarin Complexone (Sigma-Aldrich, St. Louis, Mo.) in a 2% sodium bicarbonate solution. Mice 6 to 8 months of age were labeled 8 days and 2 days prior to euthanasia, respectively. Tibia were fixed in 70% ethanol, embedded in methylmethacrylate and sectioned. Bone histomorphometry on H and E sections and bone labeled sections were performed as previously described (Parfitt, et al. Report of the ASBMR Histomorphometry Nomenclature Committee. J. Bone Miner. Res. 1987, 2, 595-610). Analysis of bone volume (BV/TV), and trabecular spacing (Tb. Sp.) were performed on the metaphyseal region of tibia sections stained with H and E. Bone formation rate (BFR) per bone surface (BS) and mineral apposition rate (MAR) of trabeculae were calculated within the metaphyseal region of the tibia. For all histomorphometry, three sections per mouse with 4 to 5 mice per group were analyzed. Analysis was performed using Bioquant Osteo software (Bioquant Image Analysis Corporation, Nashville, Tenn.).

A short description of assay [2]: Human plasma CTX levels, Phase I patients. In kind it is in vivo. The source says: All samples were de-identified and the experiments were approved by the University of Utah Institutional Review Board. Plasma samples were submitted to ARUP for clinical testing of CTX. For BSAP, the Human Bone Panel I capture plate with the Human Alkaline Phosphatase detection kit was utilized (Meso Scale Discovery, Rockville, Md.; […]-2) to measure BSAP levels in undiluted plasma samples per the manufacturer's protocol. ASLAN002 is currently in Phase I testing as an anti-cancer agent (NCT01721148). Regardless of cancer diagnosis, and even in the absence of bone metastasis, RON inhibition might affect normal bone turnover, especially in postmenopausal women due to their high rate of bone loss. Plasma samples from early cohorts of Phase I patients were examined for evidence of bone turnover at baseline and after treatment with ASLAN002, using a standard clinical test to detect cleaved bone-derived collagen in plasma (beta-cross-linked C-telopeptide, or CTX). […] Shown in FIG. 15A is quantification of the percent change in plasma CTX levels (compared to baseline prior to drug treatment) in blood plasma of patients receiving ASLAN002 in the Phase I clinical trial. Most patients received ASLAN002 for 28 days; the exceptions in duration are noted (*15 days and ^84 days). Dark bars represent males, and light bars represent females. […] In this analysis, all subjects except one were >50 years old; women older than 50 were expected to have the greatest amount of physiologic bone turnover due to menopause. None of the patients analyzed were treated concurrently with anti-osteoporotic agents. […] Shown in FIG. 15B is quantification of the percent change in BSAP levels (compared to baseline) in blood plasma of patients receiving ASLAN002. The patients are the same as those shown in FIG. 15A, except those receiving only 15 days of ASLAN002 were not tested for BSAP. Dark bars represent males, and light bars represent females. Note that these patients were not selected based on a diagnosis of bone metastasis; rather, markers of bone turnover in patients with various cancer diagnoses who participated in the Phase I trial of ASLAN002 were simply assessed.

Assay [3] relates to c-Src. Kind of assay: Western blot of osteoclast lysates, phospho-Src. The format is cell-based, mice. The following applies: WT osteoclasts with MSP. How it is done:
Cells were serum starved (0.5% FBS) for 3 hours prior to lysate collection. Inhibitors were added 1 hour prior to lysis and MSP was added 15 min prior to lysis when indicated. Cells were washed with 1×PBS and harvested in lysis buffer (25 mM Tris-HCl, pH 7.5, 0.42 M NaCl, 1.5 mM MgCl2, 0.5 mM EDTA, 1 mM DTT, 25% sucrose, and 0.1% Triton X-100) plus 100× protease arrest (Bioscience, Bozeman, Mont.) and 100× orthovanadate. Primary antibodies used for immunoblotting include: anti-MSP (Santa Cruz, sc-6090, Dallas, Tex.) at a 1:250 dilution, anti-pan Akt (Cell Signaling, #4691S, Beverly, Mass.) at a 1:1000 dilution, anti-pan Erk (Cell Signaling, #4695, Beverly, Mass.) at a 1:1000 dilution, anti-phospho Akt (Cell Signaling, #9271 L, Beverly, Mass.) at a 1:500 dilution, anti-phospho Erk (Cell Signaling, #4370S, Beverly, Mass.) at a 1:500 dilution, anti-Src (Cell Signaling, #2110, Beverly, Mass.) at a 1:500 dilution, and anti-phospho Src (Y416) (Cell Signaling, #2113, Beverly, Mass.) at a 1:500 dilution. The secondary antibodies used were HRP-conjugated anti-goat IgG (Santa Cruz, Dallas, Tex.) and anti-rabbit IgG (Santa Cruz, Dallas, Tex.). Chemiluminescent signals were detected using Immun-Star HRP (BioRad, Hercules, Calif.).
(In western blotting, separated proteins are transferred to a membrane and probed.)

Assay [4] has as its target RON (Homo sapiens, UniProt Q04912). The conditions noted are these: from the cited IC50 values; cited from earlier work.

Sequence of RON (Q04912 25-1400): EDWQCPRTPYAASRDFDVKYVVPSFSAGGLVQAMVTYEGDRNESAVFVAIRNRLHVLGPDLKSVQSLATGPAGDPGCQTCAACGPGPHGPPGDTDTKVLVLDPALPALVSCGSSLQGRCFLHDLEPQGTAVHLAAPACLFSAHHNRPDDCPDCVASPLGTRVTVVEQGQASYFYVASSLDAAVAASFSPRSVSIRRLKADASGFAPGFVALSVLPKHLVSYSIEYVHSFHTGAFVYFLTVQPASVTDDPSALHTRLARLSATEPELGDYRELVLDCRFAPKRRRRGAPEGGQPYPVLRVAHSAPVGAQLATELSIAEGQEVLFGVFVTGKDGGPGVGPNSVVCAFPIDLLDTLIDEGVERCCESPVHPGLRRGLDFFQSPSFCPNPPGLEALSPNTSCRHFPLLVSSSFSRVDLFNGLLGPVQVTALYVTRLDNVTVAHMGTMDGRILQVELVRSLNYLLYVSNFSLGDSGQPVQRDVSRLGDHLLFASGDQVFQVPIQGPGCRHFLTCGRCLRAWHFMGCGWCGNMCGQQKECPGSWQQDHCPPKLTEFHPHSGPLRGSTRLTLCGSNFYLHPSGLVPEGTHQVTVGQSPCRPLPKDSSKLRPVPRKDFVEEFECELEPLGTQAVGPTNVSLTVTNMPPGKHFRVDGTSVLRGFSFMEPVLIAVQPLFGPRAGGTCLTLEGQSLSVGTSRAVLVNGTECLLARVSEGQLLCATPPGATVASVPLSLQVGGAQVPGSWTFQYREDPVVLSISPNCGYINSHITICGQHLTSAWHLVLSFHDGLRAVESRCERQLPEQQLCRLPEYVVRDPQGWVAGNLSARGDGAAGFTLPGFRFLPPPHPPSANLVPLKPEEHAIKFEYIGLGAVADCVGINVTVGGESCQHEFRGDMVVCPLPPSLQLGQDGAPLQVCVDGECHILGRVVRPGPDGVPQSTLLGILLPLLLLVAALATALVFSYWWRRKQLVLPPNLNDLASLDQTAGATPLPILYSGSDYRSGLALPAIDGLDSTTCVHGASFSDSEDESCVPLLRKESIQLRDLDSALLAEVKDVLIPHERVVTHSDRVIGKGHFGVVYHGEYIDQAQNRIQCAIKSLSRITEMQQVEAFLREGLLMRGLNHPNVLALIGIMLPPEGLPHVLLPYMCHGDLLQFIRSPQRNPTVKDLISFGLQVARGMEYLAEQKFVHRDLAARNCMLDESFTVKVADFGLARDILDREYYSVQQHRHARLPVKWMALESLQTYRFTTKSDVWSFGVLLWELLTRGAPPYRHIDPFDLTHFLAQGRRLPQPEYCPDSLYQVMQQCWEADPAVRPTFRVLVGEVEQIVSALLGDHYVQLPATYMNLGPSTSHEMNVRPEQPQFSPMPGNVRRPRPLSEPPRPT

With `CCOc1ccn(-c2ccc(F)cc2)c(=O)c1C(=O)Nc1ccc(Oc2ccnc(N)c2Cl)c(F)c1` [ASLAN002], in assay [1], the “bone formation rate per total bone surface” value is listed as “not significant” and the mineral apposition rate result is on record as “not significant”. The “women showing ≧25% decreases in CTX” value in assay [2] (7/10 women) is on record as 70%. The “patients exhibiting decreased CTX levels” value in assay [2] (11/18 Phase I patients, most 28 days of treatment) amounted to 61%. Moreover, the “men showing ≧25% decreases in CTX” value in assay [2] (number of men out of all men) is on record as 0/8. The “patients with decreased CTX that had ≧25% reduction” value in assay [2] (of the patients with decreased CTX, Mayo clinic response guideline) is reported as 64%. Besides, in assay [3], the “MSP-increased Src phosphorylation” value is on record as “blocked”. In addition, the “selectivity between RON and Met” value in assay [4] was “more selective for RON”.
